According to ChEMBL document CHEMBL1151752, “Synthesis and structure-activity relationships of 2-amino-1-aroylnaphthalene and 2-hydroxy-1-aroylnaphthalenes as potent antitubulin agents” (J Med Chem, 2008):

What was measured:
[1] = tested on: KB; experiment: Growth inhibition of human KB cells after 72 hrs by methylene blue dye assay; assay type: functional, cell-based
[2] = tested on: KB; experiment: Growth inhibition of human Pgp170 overexpressing multidrug resistant-KB-VIN10 cells after 72 hrs by methylene blue dye assay; assay type: functional, cell-based
[3] = tested on: NCI-H460; experiment: Growth inhibition of human H460 cells after 72 hrs by methylene blue dye assay; assay type: functional, cell-based; conditions: NCI-H460, 72 h
[4] = tested on: HT-29; experiment: Growth inhibition of human HT-29 cells after 72 hrs by methylene blue dye assay; assay type: functional, cell-based; conditions: HT-29, 72 h
[5] = tested on: MKN-45; experiment: Growth inhibition of human MKN45 cells after 72 hrs by methylene blue dye assay; assay type: functional, cell-based; conditions: MKN-45, 72 h
[6] = Inhibition of tubulin polymerization after 30 mins
[7] = Displacement of [3H]colchicine from tubulin after 2 hrs at 5 uM
[8] = tested on: KB; experiment: Growth inhibition of human Pgp170 overexpressing multidrug resistant-KB-TAX50 cells after 72 hrs by methylene blue dye assay; assay type: functional, cell-based
[9] = tested on: KB; experiment: Growth inhibition of human KB-7D cells overexpressing multidrug resistant associated protein after 72 hrs by methylene blue dye assay; assay type: functional, cell-based
[10] = Growth inhibition of human fibroblast Detrot 551 cells after 72 hrs by methylene blue dye assay; assay type: cell-based; conditions: Detrot 551, 72 h

IC50 [1]	IC50 [2]	IC50 [3]	IC50 [4]	IC50 [5]	IC50 [6]	Activity [7]	IC50 [8]	IC50 [9]	Structure (SMILES)	IC50 [10]
8800 nM	7910 nM	> 10000 nM	9850 nM	7430 nM	> 10000 nM	–	–	–	COc1ccc2c(N)c(C(=O)c3cc(OC)c(OC)c(OC)c3)ccc2c1	–
276 nM	263 nM	321 nM	412 nM	254 nM	2900 nM	67%	–	–	COc1ccc2c(C(=O)c3cc(OC)c(OC)c(OC)c3)c(C)ccc2c1	–
72.9 nM	58 nM	85.5 nM	69.4 nM	44.1 nM	4300 nM	68%	–	–	COc1ccc2c(C(=O)c3cc(OC)c(OC)c(OC)c3)cccc2c1	–
2600 nM	2430 nM	2720 nM	2850 nM	1760 nM	–	–	–	–	CCCOc1ccc2cc(OC)ccc2c1C(=O)c1cc(OC)c(OC)c(OC)c1	–
0.4 nM	90.1 nM	–	–	–	–	–	17.6 nM	1.2 nM	CC[C@]1(O)C[C@H]2CN(CCc3c([nH]c4ccccc34)[C@@](C(=O)OC)(c3cc4c(cc3OC)N(C=O)[C@H]3[C@@](O)(C(=O)OC)[C@H](OC(C)=O)[C@]5(CC)C=CCN6CC[C@]43[C@@H]65)C2)C1 [VINCRISTINE]	–
> 10000 nM	> 10000 nM	> 10000 nM	> 10000 nM	> 10000 nM	–	–	–	–	COc1ccc2c(OC)c(C(=O)c3cc(OC)c(OC)c(OC)c3)ccc2c1	–
> 10000 nM	> 10000 nM	> 10000 nM	> 10000 nM	> 10000 nM	–	–	–	–	COc1ccc2c(O)c(C(=O)c3cc(OC)c(OC)c(OC)c3)ccc2c1	–
2.9 nM	3.3 nM	3.6 nM	15.4 nM	2.1 nM	2400 nM	85%	3.1 nM	3.5 nM	COc1ccc2c(C(=O)c3cc(OC)c(OC)c(OC)c3)c(N)ccc2c1	> 1000 nM
1000 nM	1100 nM	987 nM	1320 nM	840 nM	–	–	–	–	CCCc1ccc2cc(OC)ccc2c1C(=O)c1cc(OC)c(OC)c(OC)c1	–
8.2 nM	11 nM	12.6 nM	26.3 nM	21 nM	2600 nM	75%	15 nM	16.9 nM	COc1ccc2c(C(=O)c3cc(OC)c(OC)c(OC)c3)c(O)ccc2c1	> 1000 nM
600 nM	512 nM	764 nM	667 nM	320 nM	–	–	–	–	CCc1ccc2cc(OC)ccc2c1C(=O)c1cc(OC)c(OC)c(OC)c1	–
4.6 nM	6.2 nM	7.1 nM	5.9 nM	3.2 nM	2800 nM	85%	–	–	COc1ccc2c(C(=O)c3cc(OC)c(OC)c(OC)c3)c[nH]c2c1	–
381 nM	364 nM	416 nM	512 nM	338 nM	–	–	–	–	CNc1ccc2cc(OC)ccc2c1C(=O)c1cc(OC)c(OC)c(OC)c1	–
1000 nM	912 nM	1210 nM	1130 nM	874 nM	–	–	–	–	CCOc1ccc2cc(OC)ccc2c1C(=O)c1cc(OC)c(OC)c(OC)c1	–
–	23000 nM	–	–	–	–	–	3500 nM	54000 nM	COc1cc([C@@H]2c3cc4c(cc3[C@@H](O[C@@H]3O[C@@H]5CO[C@@H](C)O[C@H]5[C@H](O)[C@H]3O)[C@H]3COC(=O)[C@H]23)OCO4)cc(OC)c1O [ETOPOSIDE]	–
510 nM	530 nM	716 nM	548 nM	462 nM	–	–	–	–	COc1ccc2cc(C(=O)c3cc(OC)c(OC)c(OC)c3)ccc2c1	–
> 10000 nM	> 10000 nM	> 10000 nM	> 10000 nM	> 10000 nM	–	–	–	–	COc1ccc2c(C(=O)c3cc(OC)c(OC)c(OC)c3)c(N(C)C)ccc2c1	–
65 nM	70 nM	84 nM	144 nM	53 nM	2700 nM	52%	–	–	COc1ccc2c(C(=O)c3cc(OC)c(OC)c(OC)c3)c(OC)ccc2c1	–
3.3 nM	16500 nM	–	–	–	–	–	273 nM	7.9 nM	CC(=O)O[C@H]1C(=O)[C@@]2(C)[C@H]([C@H](OC(=O)c3ccccc3)[C@]3(O)C[C@H](OC(=O)[C@H](O)[C@@H](NC(=O)c4ccccc4)c4ccccc4)C(C)=C1C3(C)C)[C@]1(OC(C)=O)CO[C@@H]1C[C@@H]2O [PACLITAXEL]	–
–	–	–	–	–	–	93%	–	–	COc1ccc(/C=C\c2cc(OC)c(OC)c(OC)c2)cc1O	–

Structure (SMILES)	IC50 [1]	IC50 [2]	IC50 [3]	IC50 [4]	IC50 [5]	IC50 [6]	Activity [7]	IC50 [8]	IC50 [9]	IC50 [10]
COc1cc2c(c(OC)c1OC)-c1ccc(OC)c(=O)cc1[C@@H](NC(C)=O)CC2 [COLCHICINE]	11 nM	–	18 nM	10 nM	–	3200 nM	–	–	–	–
